The test system of experiment [1] is Gram-negative bacteria (Enterobacterales, Pseudomonas, Acinetobacter). The following applies: for CLSI RM R / EUCAST RM R: number of strains resistant; for CLSI RM S / EUCAST RM S: number of strains susceptible; for CLSI RM I: number of strains I.
Description: (§1) For Colistin (on gram-negative bacteria) and vancomycin (in the case of Staphylococcus), the method used to determine the antimicrobial susceptibility was broth microdilution [5]. […] Standard methodologies were performed from the same inoculum used to spike the blood cultures. Quality control of the reference methods was also performed according to the recommendations of EUCAST and CLSI.
(§2) All the strains were classified as S, I or R according the reference methods. MIC was determined for vancomycin and colistin. The presence of ESBL on Enterobacterales group I, together with the screening for ESBL on Enterobacterales group II, and the screening for AmpC and presence of carbapenemases according EUCAST protocol for detection of mechanisms of resistance were also performed.
(§3) Positive blood cultures were spiked in blood agar and colonies identified and submitted to antimicrobial susceptibility assay according reference disk diffusion method and/or to MIC values determined by microdilution. The results were analysed using the most recent EUCAST breakpoint tables and the M100 (29th ed.) breakpoint tables from CLSI.
Experiment [2] deals with Gram-positive bacteria (Staphylococcus spp, Enterococcus spp). Nature of the experiment: Reference method (RM): disk diffusion and/or broth microdilution, S/I/R classification, Gram-positive strains.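 On all read-outs here: susceptibility categories assigned with the latest EUCAST breakpoint tables or CLSI M100 29th edition breakpoints, with quality control of the reference methods following EUCAST and CLSI guidance.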 Format: cell-based. The following applies: for CLSI RM R / EUCAST RM R: number of strains resistant; for CLSI RM S / EUCAST RM S: number of strains susceptible.
Description: as §1, §2, §3
Setting [3] is: CLSI, total of 3 sites, blood cultures.
Setting [4] is: EUCAST, total of 3 sites, blood cultures.
[5] abbreviates: CLSI, FASTinov, Porto, spiked on blood cultures.
[6] abbreviates: CLSI, Hospital Ramon et Cajal, Madrid, patients' blood cultures.
Where [7] appears, read: CLSI, Hospital S. João, Porto, patients' blood cultures.
Where [8] appears, read: EUCAST, FASTinov, Porto, spiked on blood cultures.
Where [9] appears, read: EUCAST, Hospital Ramon et Cajal, Madrid, patients' blood cultures.
[10] abbreviates: EUCAST, Hospital S. João, Porto, patients' blood cultures.
The mark [11] stands for this setting: CLSI, FASTinov, Porto, spiked blood cultures.
Setting [12] is: EUCAST, FASTinov, Porto, spiked blood cultures.
The mark [13] stands for this setting: CLSI, Hospital Ramon et Cajal, Madrid, patients blood cultures.
Where [14] appears, read: EUCAST, Hospital Ramon et Cajal, Madrid, patients blood cultures.

Where two headings read alike, the source gives them in different places.

With `NCC[C@H](O)C(=O)N[C@@H]1C[C@H](N)[C@@H](O[C@H]2O[C@H](CN)[C@@H](O)[C@H](O)[C@H]2O)[C@H](O)[C@H]1O[C@H]1O[C@H](CO)[C@@H](O)[C@H](N)[C@H]1O` [Amikacin], the “RM R (strains resistant by reference method)” value in experiment [1] (setting [3]) was found to be 27; in experiment [1] (setting [4]), 30. The figures for the “RM S (strains susceptible by reference method)” value in experiment [1] (setting [3]) and in experiment [1] (setting [4]) were 316 and 313, respectively. For the same molecule, the figures for the “CLSI RM R” value in experiment [1] (setting [5]), in experiment [1] (setting [6]) and in experiment [1] (setting [7]) were 25, 1 and 1, respectively. Further, the “EUCAST RM R” value came out at 27 in experiment [1] (setting [8]), 1 in experiment [1] (setting [9]) and 2 in experiment [1] (setting [10]). In addition, the “CLSI RM S” value in experiment [1] (setting [5]) was 158; in experiment [1] (setting [6]), 77; in experiment [1] (setting [7]), 81. Moreover, the “EUCAST RM S” value in experiment [1] (setting [8]) is 156; in experiment [1] (setting [9]), 77; in experiment [1] (setting [10]), 80.

As to `CO/N=C(\C(=O)N[C@@H]1C(=O)N2C(C(=O)O)=C(COC(C)=O)CS[C@H]12)c1csc(N)n1` [Cefotaxime], the “RM R (strains resistant by reference method)” value in experiment [1] (setting [3]) and in experiment [1] (setting [4]) was 75 throughout. The “RM S (strains susceptible by reference method)” value in experiment [1] (setting [3]) and in experiment [1] (setting [4]) was 156 throughout. Moreover, the “CLSI RM R” value in experiment [1] (setting [5]) is on record as 54; in experiment [1] (setting [6]), 13; in experiment [1] (setting [7]), 8. The “EUCAST RM R” value in experiment [1] (setting [8]) amounted to 54; in experiment [1] (setting [9]), 13; in experiment [1] (setting [10]) it was 8. For the same molecule, the “CLSI RM S” value worked out at 27 in experiment [1] (setting [5]), 61 in experiment [1] (setting [6]) and 68 in experiment [1] (setting [7]). Besides, the “EUCAST RM S” value in experiment [1] (setting [8]) is reported as 27; in experiment [1] (setting [9]), 61; in experiment [1] (setting [10]), 68.

For `CO[C@@]1(NC(=O)Cc2cccs2)C(=O)N2C(C(=O)O)=C(COC(N)=O)CS[C@@H]21` [Cefoxitin], the “RM R (strains resistant by reference method)” value stood at 17 in experiment [2] (setting [11]), 52 in experiment [2] (setting [3]), 17 in experiment [2] (setting [12]) and 52 in experiment [2] (setting [4]). Also, the “RM S (strains susceptible by reference method)” value in experiment [2] (setting [11]) worked out at 26; in experiment [2] (setting [3]), 48; in experiment [2] (setting [12]), 26; in experiment [2] (setting [4]), 48. In addition, the “CLSI RM R” value turned out to be 9 in experiment [2] (setting [13]) and 26 in experiment [2] (setting [7]). Further, the “EUCAST RM R” value in experiment [2] (setting [14]) is 9; in experiment [2] (setting [10]) it was 26. Also, the “CLSI RM S” value is listed as 13 in experiment [2] (setting [13]) and 9 in experiment [2] (setting [7]). Also, the “EUCAST RM S” value in experiment [2] (setting [14]) is reported as 13; in experiment [2] (setting [10]), 9.

As to `C[C@@H](O)[C@H]1C(=O)N2C(C(=O)O)=C(SCCN=CN)C[C@H]12` [Imipenem], in experiment [2] (setting [12]), the “RM I (strains intermediate by reference method)” value turned out to be 39 and the “RM R (strains resistant by reference method)” value turned out to be 26. Moreover, in experiment [2] (number of strains I, EUCAST, Hospital Ramon et Cajal, Madrid, patients blood cultures), the “EUCAST RM I” value came out at 12. In addition, the “EUCAST RM R” value in experiment [2] (setting [14]) is listed as 1.

Regarding `CC(=O)NC[C@H]1CN(c2ccc(N3CCOCC3)c(F)c2)C(=O)O1` [Linezolid], the “RM R (strains resistant by reference method)” value in experiment [2] (setting [11]) was found to be 3; in experiment [2] (setting [3]) it was 5; in experiment [2] (setting [12]), 3; in experiment [2] (setting [4]), 5. Further, the “RM S (strains susceptible by reference method)” value is 128 in experiment [2] (setting [11]), 298 in experiment [2] (setting [3]), 128 in experiment [2] (setting [12]) and 298 in experiment [2] (setting [4]). The “CLSI RM R” value in experiment [2] (setting [7]) is given as 2. For the same molecule, in experiment [2] (setting [10]), the “EUCAST RM R” value is given as 2. The “CLSI RM S” value was 68 in experiment [2] (setting [13]) and 102 in experiment [2] (setting [7]). In addition, the “EUCAST RM S” value was found to be 68 in experiment [2] (setting [14]) and 102 in experiment [2] (setting [10]).

Consider `Cc1onc(-c2ccccc2)c1C(=O)N[C@@H]1C(=O)N2[C@@H]1SC(C)(C)[C@@H]2C(=O)O` [Oxacillin], for which the “RM R (strains resistant by reference method)” value in experiment [2] (setting [11]) was 19; in experiment [2] (setting [3]), 74; in experiment [2] (setting [12]), 19; in experiment [2] (setting [4]), 74. Also, the “RM S (strains susceptible by reference method)” value in experiment [2] (setting [11]) is 4; in experiment [2] (setting [3]) it was 14; in experiment [2] (setting [12]), 4; in experiment [2] (setting [4]), 14. Also, the “CLSI RM R” value in experiment [2] (setting [13]) is on record as 19; in experiment [2] (setting [7]), 36. The figures for the “EUCAST RM R” value in experiment [2] (setting [14]) and in experiment [2] (setting [10]) were 19 and 36, respectively. Also, the “CLSI RM S” value in experiment [2] (setting [13]) and in experiment [2] (setting [7]) was 5 in each case. For the same molecule, the “EUCAST RM S” value in experiment [2] (setting [14]) and in experiment [2] (setting [10]) was 5 in each case.

As to Amoxacillin-clavulanic acid, in experiment [1] (setting [3]), the “RM I (strains intermediate by reference method)” value was determined as 14, the “RM R (strains resistant by reference method)” value stood at 107 and the “RM S (strains susceptible by reference method)” value was found to be 110. Besides, in experiment [1] (setting [4]), the “RM R (strains resistant by reference method)” value amounted to 125 and the “RM S (strains susceptible by reference method)” value is on record as 106. Besides, in experiment [1] (setting [5]), the “CLSI RM I” value is 5, the “CLSI RM R” value was 56 and the “CLSI RM S” value was 20. In experiment [1] (setting [6]), the “CLSI RM I” value is 9, the “CLSI RM R” value is listed as 19 and the “CLSI RM S” value worked out at 46. In addition, in experiment [1] (setting [7]), the “CLSI RM R” value came out at 32 and the “CLSI RM S” value amounted to 44. In addition, in experiment [1] (setting [8]), the “EUCAST RM R” value worked out at 62 and the “EUCAST RM S” value is 19. In experiment [1] (setting [9]), the “EUCAST RM R” value was 30 and the “EUCAST RM S” value worked out at 44. For the same molecule, in experiment [1] (setting [10]), the “EUCAST RM R” value worked out at 33 and the “EUCAST RM S” value was 43.

For the molecule Ceftazidime-avibactam, the “RM R (strains resistant by reference method)” value in experiment [1] (setting [3]) and in experiment [1] (setting [4]) was 8 each time. In addition, the “RM S (strains susceptible by reference method)” value in experiment [1] (setting [3]) and in experiment [1] (setting [4]) was 307 in each case. The “CLSI RM R” value in experiment [1] (setting [5]) was 8; in experiment [1] (setting [6]) it was 1. In addition, the “EUCAST RM R” value in experiment [1] (setting [8]) was 8. In addition, the “CLSI RM S” value is 145 in experiment [1] (setting [5]), 81 in experiment [1] (setting [6]) and 81 in experiment [1] (setting [7]). For the same molecule, the “EUCAST RM S” value was determined as 145 in experiment [1] (setting [8]), 81 in experiment [1] (setting [9]) and 81 in experiment [1] (setting [10]).

Regarding Gentamicin [Gentamicin high level], the “RM R (strains resistant by reference method)” value in experiment [2] (setting [11]) is 12; in experiment [2] (setting [3]) it was 15; in experiment [2] (setting [12]) it was 12; in experiment [2] (setting [4]) it was 15. Also, the “RM S (strains susceptible by reference method)” value in experiment [2] (setting [11]) amounted to 35; in experiment [2] (setting [3]), 51; in experiment [2] (setting [12]), 35; in experiment [2] (setting [4]), 51. Further, the “CLSI RM R” value was 2 in experiment [2] (setting [13]) and 1 in experiment [2] (setting [7]). The “EUCAST RM R” value was 2 in experiment [2] (setting [14]) and 1 in experiment [2] (setting [10]). Besides, the “CLSI RM S” value in experiment [2] (setting [13]) amounted to 10; in experiment [2] (setting [7]), 6. The “EUCAST RM S” value came out at 10 in experiment [2] (setting [14]) and 6 in experiment [2] (setting [10]).
